The subject of experiment [1] is P388. Kind of experiment: In vivo antitumor activity against mouse P388 cells at 5 mg/kg relative to control. Format: functional.
Experiment [2] concerns P388. Kind of experiment: In vivo antitumor activity against mouse P388 cells at 2 mg/kg relative to control. Format: functional.

As for `CCOC(=O)CC1(O)C=CC(=O)C=C1`, the T/C in experiment [1] is listed as 120%.

`COC(=O)CC1(O)C=CC(=O)C=C1` [JACARANONE] came in with a T/C in experiment [2] of 165%.

The values above are taken from ChEMBL document CHEMBL1151351, “Antineoplastic Agents. 67. Senecio fendleri Gray” (1980).
